Consider 20 compounds from patent publication US20070073039A1, “Peptides that inhibit viral infections” (priority 2005, published 2007).

A short description of series [1]: Preliminary in vivo toxicity in mice. As to the method:
As a preliminary measurement of the in vivo cytotoxicity of the peptides 1, 2 and 3 (see Table 4) a group of three mice (BALB/c mice, 7 weeks old, about 23 g) were each injected with 92 μg L-type peptide 1 ( ˜4 mg/kg) in 200 μL PBS (spun 14,000 rpm for 3 minutes before injection). In the control group, each of three mice was given 200 μL PBS containing 5% DMSO. The mice were monitored for acute toxicity during the first 3 hours after injection.
No change in appearance, activity or behavior was observed. The mice were then weighed on days 0, 3, 5, 7 and 10. Peptide-injected mice gained weight at the same rate as the controls.

Series [2] has as its system HCV. The experiment in a line: HCV focus reduction assay. As to conditions: for Inhibition of HCV infection: cell culture model of HCV infection; for Fold Inhibition: inhibition of HCV infection; for Fold Inhibition / % of Mock: peptide approximately 20 μM, Huh-7.5.1 cells, 3 days; for % of Mock: number of HCV foci as % of mock (0.5% DMSO); for Fold inhibition of HCV infection: peptide library screen, approximately 20 μM; for Focus Reduction (72 h): working concentration 18.4-27.5 μM per peptide, Mock 51. The series is classed as cell-based, Hepatitis C virus (JFH-1). The method, then:
To identify peptides that display antiviral activity against HCV infection, the peptide library was screened by an HCV focus reduction assay. The peptides were constituted in 100% DMSO at a final concentration 10 mg/mL, and stored in −20° C. The peptide stock solution was diluted 1:200 to a final concentration approximately 20 μM in complete DMEM growth medium containing 50 focus forming units (ffu) of HCV. The virus-peptide mixture was transferred to Huh-7.5.1 cells at a density of 8000 cells per well in a 96-well plate. After adsorption for 4 hours at 37° C., the inoculum was removed. The cells were washed 2 times, overlaid with 120 μL fresh growth medium and incubated at 37° C. After 3 days of culture, the cells were fixed with paraformaldehyde and immunostained with antibody against HCV nonstructural protein NS5A. The numbers of HCV foci were counted under fluorescent microscopy and the result is expressed as percentage (%) of mock with no peptide treatment but containing solvent 0.5% DMSO.
To determine whether the antiviral activity of peptide 1 is dependent on its primary amino acid sequence, four derivative peptides from peptide 1 were synthesized to a purity >95%. The four derivatives having the same composition of amino acids included (1) the reversed the sequence of peptide 1 (also called retro-peptide); (2) scrambled hydrophobic amino acids; (3) scrambled hydrophilic amino acids; and (4) a derivative in which the aspartic acid residues (D) were replaced with proline residues (P). The antiviral activity of the peptides was examined by HCV focus reduction assay at three peptide concentrations: 18 μM, 6 μM and 2 μM, as described above.

For series [3], the system named is HCV. The experiment in a line: Intracellular HCV RNA by real time RT-QPCR after infection of Huh-7.5.1 cells with and without peptide. The class given is cell-based, Hepatitis C virus (JFH-1). As to conditions: for HCV RNA fold inhibition 24 h 25 μM / HCV RNA fold inhibition 72 h 25 μM: Huh-7.5.1 cells, MOI 0.1, normalized to GAPDH; for Fold Inhibition on HCV RNA (24 h) / Fold Inhibition on HCV RNA (72 h): working concentration 18.4-27.5 μM per peptide. As to the method: To accurately quantify the inhibitory effect of the selected peptides on HCV infection, intracellular HCV RNA was measured after infection by real time RT-QPCR with and without peptide treatment. The peptide stock solution was diluted 1:100 and mixed with equal volume of viral supernatant (propagated from day 18 virus preparation post transfection) to a final concentration approximately 20 μM. The virus with peptide or 0.5% DMSO solvent control was then used to infect Huh-7.5.1 cells at a multiplicity of infection (MOI) of 0.1. After an adsorption for 4 hours at 37° C., the inoculum was removed. The cells were washed 2 times, overlaid with 120 μL fresh growth medium and incubated at 37° C. At the indicated time points, total cellular RNA was isolated by the guanidine thiocyanate method. The HCV RNA transcript level was measured by real time RT-QPCR with the primers 5′—
normalized to cellular GAPDH levels.
To define the antiviral action of peptide #1 (SEQ ID NO:43), the antiviral activity of a series of N-terminal and C-terminal truncations of peptide 1 was analyzed using the focus reduction assay and by measuring the reduction in intracellular HCV RNA as described.

Another series concerns Dengue-2. The series is described as follows: Dengue-2 infection of Vero cells, Intracellular FACS Assay. The class given is cell-based. As to conditions: 20 μM, Vero cells 3 days post-infection; for % of Dead cells PI: propidium iodide staining. The method, then: Intracellular FACS Assay: Vero cells were seeded for 24 h pre-infection in 6-well plates. Cells were exposed to Dengue-2 in the presence of increasing concentrations of peptide (or DMSO as control). Viruses and peptide were washed away 2 h post-infection. Cells were taken for intracellular staining 3 days post-infection. Cells were stained with appropriate isotype control, Dengue Env, Dengue capsid or tubulin antibodies. Cells were analyzed by FACS.

No end group written: not given here.

For the compound `CSCC[C@H](NC(=O)[C@H](CO)NC(=O)[C@H](CS)NC(=O)[C@H](CS)NC(=O)[C@@H](NC(=O)[C@@H](NC(=O)[C@H](CC(=O)O)NC(=O)[C@H](CCC(=O)O)NC(=O)[C@@H](NC(=O)[C@H](CC(=O)O)NC(=O)[C@H](C)NC(=O)CNC(=O)[C@H](CO)NC(=O)[C@@H](N)CO)[C@@H](C)O)C(C)C)C(C)C)C(=O)N[C@@H](CO)C(=O)N[C@@H](Cc1ccc(O)cc1)C(=O)N[C@@H](CO)C(=O)N[C@@H](Cc1c[nH]c2ccccc12)C(=O)O` [Peptide 3], the “In vivo toxicity observation” value in series [1] (92 μg ( ˜4 mg/kg) in 200 μL PBS, acute toxicity first 3 hours, weight to day 10) was “Peptides 1, 2 and 3 are Nontoxic in C57BL/6 Mice”. For the same compound, the “Weight(g) (d.0)” value in series [1] (day 0, ˜4 mg/kg injected) turned out to be 24.1 g. Besides, in series [1] (day 3), the “Weight(g) (d.3)” value was found to be 24.1 g. In addition, in series [1] (day 5), the “Weight(g) (d.5)” value worked out at 24.7 g. Moreover, the “Weight(g) (d.7)” value in series [1] (day 7) amounted to 24.7 g. Further, the “Weight(g) (d.10)” value in series [1] (day 10) is 24.7 g.

Take ALYVGDLCGSVFLVGQLF [Peptide 7]: in the series on HCV [2], the “Inhibition of HCV infection” value is given as “strongly inhibit HCV infection”, the “Fold Inhibition” value turned out to be 100.0 fold, the “% of Mock” value is reported as 1.0% and the “Fold inhibition of HCV infection” value is reported as “more than ten-fold”. In addition, in the series with HCV [3], the “HCV RNA fold inhibition 24 h 25 μM” value is on record as 20 fold and the “HCV RNA fold inhibition 72 h 25 μM” value is reported as 11 fold.

For the compound ATQTFLATCINGVCWTVY [Peptide 12], in the series with HCV [2], the “Inhibition of HCV infection” value is listed as “strongly inhibit HCV infection”, the “Fold Inhibition” value is recorded as 42.0 fold, the “% of Mock” value is on record as 2.4% and the “Fold inhibition of HCV infection” value was “more than ten-fold”. In the series with HCV [3], the “HCV RNA fold inhibition 24 h 25 μM” value was determined as 8 fold and the “HCV RNA fold inhibition 72 h 25 μM” value was 5 fold.

Turning to CEVLSDFK [^N-8mer], the “Focus Reduction (72 h)” value in the series on HCV [2] worked out at 53. For the same compound, in the series with HCV [3], the “Fold Inhibition on HCV RNA (24 h)” value worked out at 1.1 fold and the “Fold Inhibition on HCV RNA (72 h)” value was 0.7 fold.

Consider DIWDWICEVLSDFK [^N-14mer], for which the “% of Dead cells PI” value in the series with Dengue-2 is reported as 0.76%.

Turning to DWICEVLSDFKTWLKAKL [Peptide 13], in the series with HCV [2], the “Inhibition of HCV infection” value is reported as “strongly inhibit HCV infection”, the “Fold Inhibition” value worked out at 42.0 fold, the “% of Mock” value was found to be 2.4% and the “Fold inhibition of HCV infection” value is given as “more than ten-fold”. Further, in the series on HCV [3], the “HCV RNA fold inhibition 24 h 25 μM” value turned out to be 7 fold and the “HCV RNA fold inhibition 72 h 25 μM” value was 2 fold.

Consider GSATLCSALYVGDLCGSV [Peptide 5], for which, in the series with HCV [2], the “Inhibition of HCV infection” value is “strongly inhibit HCV infection”, the “Fold Inhibition” value was determined as 100.0 fold, the “% of Mock” value is listed as 1.0% and the “Fold inhibition of HCV infection” value is “more than ten-fold”. In addition, in the series with HCV [3], the “HCV RNA fold inhibition 24 h 25 μM” value is on record as 26 fold and the “HCV RNA fold inhibition 72 h 25 μM” value is 27 fold.

Turning to IFLLALLSCLTVPASAYQ [Peptide 8], in the series with HCV [2], the “Inhibition of HCV infection” value is “strongly inhibit HCV infection”, the “Fold Inhibition” value worked out at 42.0 fold, the “% of Mock” value is 2.4% and the “Fold inhibition of HCV infection” value is recorded as “more than ten-fold”. Besides, in the series with HCV [3], the “HCV RNA fold inhibition 24 h 25 μM” value is listed as 18 fold and the “HCV RNA fold inhibition 72 h 25 μM” value is on record as 7 fold.

As to IMDMIAGAHWGVLAGIAY [Peptide 9], in the series with HCV [2], the “Inhibition of HCV infection” value was “strongly inhibit HCV infection”, the “Fold Inhibition” value amounted to 42.0 fold, the “% of Mock” value is 2.4% and the “Fold inhibition of HCV infection” value was “more than ten-fold”. Moreover, in the series on HCV [3], the “HCV RNA fold inhibition 24 h 25 μM” value was 10 fold and the “HCV RNA fold inhibition 72 h 25 μM” value was 22 fold.

LYGNEGCGWAGWLLSPRG [Peptide 10]: in the series on Dengue-2, the “% of Dead cells PI” value came to 4.05%.

As to SWLRDIWD [^C-8mer], the “Focus Reduction (72 h)” value in the series with HCV [2] was found to be 58. For the same compound, in the series with HCV [3], the “Fold Inhibition on HCV RNA (24 h)” value was 1.3 fold and the “Fold Inhibition on HCV RNA (72 h)” value was 1.0 fold.

As for SWLRDIWDWI [^C-10mer], in the series on HCV [2], the “Focus Reduction (72 h)” value was found to be 65. Also, in the series with HCV [3], the “Fold Inhibition on HCV RNA (24 h)” value was found to be 0.8 fold and the “Fold Inhibition on HCV RNA (72 h)” value is 0.6 fold. Also, in the series on Dengue-2 (DMSO 41.26), the “% GATED, Dengue α-Capsid (9A7)” value came to 37.21%. Besides, the “% of Dead cells PI” value in the series on Dengue-2 was 1.2%.

As to SWLRDIWDWICE [^C-12mer], in the series with HCV [2], the “Focus Reduction (72 h)” value stood at 107. Also, in the series with HCV [3], the “Fold Inhibition on HCV RNA (24 h)” value was determined as 0.8 fold and the “Fold Inhibition on HCV RNA (72 h)” value was 0.5 fold.

In the case of SWLRDIWDWICEV [^C-13mer], in the series with Dengue-2, the “% of Dead cells PI” value worked out at 3.04%.

For SWLRDIWDWICEVLSD [^C-16mer], the “Focus Reduction (72 h)” value with HCV [2] was found to be 0. In the series with HCV [3], the “Fold Inhibition on HCV RNA (24 h)” value is recorded as 9852.6 fold and the “Fold Inhibition on HCV RNA (72 h)” value amounted to 234207.1 fold.

Consider TLVFDITKLLLAIFGPLW [Peptide 6], for which, in the series on HCV [2], the “Inhibition of HCV infection” value was “strongly inhibit HCV infection”, the “Fold Inhibition” value was 100.0 fold, the “% of Mock” value amounted to 1.0% and the “Fold inhibition of HCV infection” value is “more than ten-fold”. In addition, in the series on HCV [3], the “HCV RNA fold inhibition 24 h 25 μM” value amounted to 24 fold and the “HCV RNA fold inhibition 72 h 25 μM” value is reported as 16 fold.

On to WDWICEVLSDFK [^N-12mer], for which the “Focus Reduction (72 h)” value in the series on HCV [2] is 38. Besides, in the series with HCV [3], the “Fold Inhibition on HCV RNA (24 h)” value was determined as 2.2 fold and the “Fold Inhibition on HCV RNA (72 h)” value came to 1.4 fold.

Take WICEVLSDFK [^N-10mer]: the “Focus Reduction (72 h)” value in the series with HCV [2] is 45. For the same compound, in the series with HCV [3], the “Fold Inhibition on HCV RNA (24 h)” value is 1.1 fold and the “Fold Inhibition on HCV RNA (72 h)” value was found to be 1.0 fold.

For the compound WMMLLISQAEAALENLVI [Peptide 4], in the series with HCV [2], the “Inhibition of HCV infection” value is listed as “strongly inhibit HCV infection”, the “Fold Inhibition” value is given as 21.0 fold, the “% of Mock” value is 4.8% and the “Fold inhibition of HCV infection” value is listed as “more than ten-fold”. In the series with HCV [3], the “HCV RNA fold inhibition 24 h 25 μM” value is 27 fold and the “HCV RNA fold inhibition 72 h 25 μM” value was 40 fold.

Consider YLYGVGSSIASWAIKWEY [Peptide 11], for which, in the series on HCV [2], the “Inhibition of HCV infection” value is “strongly inhibit HCV infection”, the “Fold Inhibition” value was 42.0 fold, the “% of Mock” value is 2.4% and the “Fold inhibition of HCV infection” value is recorded as “more than ten-fold”. Further, in the series on HCV [3], the “HCV RNA fold inhibition 24 h 25 μM” value is on record as 9 fold and the “HCV RNA fold inhibition 72 h 25 μM” value is recorded as 7 fold.
